Assay results published in ChEMBL document CHEMBL6134843, “HDAC11 Inhibition as a Potential Therapeutic Strategy for AML: Target Identification, Lead Discovery, Antitumor Potency, and Mechanism Investigation” (J Med Chem, 2025).
The source made the active and inactive calls. No cut-off for these calls is given here.

Key:
[1] = test system: THP-1; test: Antiproliferative activity against human THP-1 cells assessed as cell growth inhibition incubated for 2 days by CCK-8 assay; conditions: THP-1, 48 h
[2] = Half life in ICR(CD-1) mouse at 5 mg/kg, iv treated up to 24 hrs by LC-MS/MS analysis; format: ADME, organism-based; conditions: in vivo
[3] = test system: Acute myeloid leukemic cell; test: Induction of ferroptosis in human Acute myeloid leukemic cells assessed as downregulation of GPX4 level by Western blot analysis; format: functional, cell-based
[4] = Tmax in ICR(CD-1) mouse at 50 mg/kg, ip treated up to 24 hrs by LC-MS/MS analysis; format: ADME, organism-based; conditions: in vivo
[5] = test system: MV4-11; test: Antiproliferative activity against human MV4-11 cells assessed as cell growth inhibition incubated for 2 days by CCK-8 assay; conditions: MV4-11, 48 h
[6] = test system: Acute myeloid leukemic cell; test: Induction of ferroptosis in human Acute myeloid leukemic cells assessed as upregulation of FTH1 protein level at 2.5 to 10 uM by Western blot analysis; format: functional, cell-based; conditions: dose 2.5-10 µM
[7] = test system: OCI-AML2; test: Induction of ferroptosis in human OCI-AML2 cells assessed as increase in malondialdehyde level at 5 uM incubated for 48 hrs; format: functional, cell-based
[8] = test system: OCI-AML2; test: Induction of cell differentiation in human OCI-AML2 cells assessed as increase in CD14 expression at 5 uM incubated for 48 hrs by flow cytometry analysis; format: functional, cell-based
[9] = test system: OCI-AML2; test: Antiproliferative activity against human OCI-AML2 cells assessed as cell growth inhibition incubated for 2 days by CCK-8 assay; conditions: OCI-AML2, 48 h
[10] = MRT (0 to infinity) in ICR(CD-1) mouse at 5 mg/kg, iv treated up to 24 hrs by LC-MS/MS analysis; format: ADME, organism-based; conditions: in vivo
[11] = test system: OCI-AML2; test: Induction of ferroptosis in human OCI-AML2 cells assessed as increase in lipid peroxidation accumulation at 5 uM incubated for 48 hrs in presence of ferrostatin-1 by C11-BODIPY 581/591 staining based flow cytometry analysis; format: functional, cell-based
[12] = test system: OCI-AML2; test: Induction of ferroptosis in human OCI-AML2 cells assessed as increase in ROS generation at 5 uM incubated for 48 hrs in presence of ferrostatin-1 by DCFH-DA staining based flow cytometry analysis; format: functional, cell-based
[13] = test system: U-937; test: Induction of cell differentiation in human U-937 cells assessed as increase in CD14 expression at 5 uM incubated for 48 hrs by flow cytometry analysis; format: functional, cell-based
[14] = Toxicity in female C57BL/6 mouse assessed as drug tolerance at 50 mg/kg, ip administered once daily in presence of cytarabine; format: organism-based; conditions: in vivo
[15] = test system: Acute myeloid leukemic cell; test: Induction of ferroptosis in human Acute myeloid leukemic cells assessed as upregulation of FTH1 mRNA level by RT-qPCR analysis; format: functional, cell-based
[16] = test system: U-937; test: Antiproliferative activity against human U-937 cells assessed as suppression of cell growth at 5 uM incubated for 48 hrs in presence of K67 by trypan blue staining based analysis; format: functional
[17] = test system: U-937; test: Induction of ferroptosis in human U-937 cells assessed as increase in lipid peroxidation level incubated for 48 hrs by C11-BODIPY 581/591 staining based flow cytometry analysis; format: functional, cell-based; conditions: dose 2.5-10 µM
[18] = Cytotoxicity against HEK293T cells assessed as cell viability incubated for 2 days by CCK-8 assay; format: toxicity, cell-based, HEK-293T; conditions: human
[19] = test system: OCI-AML-3; test: Antiproliferative activity against human OCI-AML-3 cells assessed as cell growth inhibition incubated for 2 days by CCK-8 assay; conditions: OCI-AML-3, 48 h
[20] = test system: MLL-AF9; test: Antitumor activity against mouse MLL-AF9 cells allografted in female C57BL/6 mouse model assessed as reduction in splenomegaly at 50 mg/kg, ip administered once daily for 23 days in presence of cytarabine; format: functional, organism-based; conditions: time 23.0 day
[21] = test system: U-937; test: Effect on WT1 gene expression in human U-937 cells at 10 uM incubated for 48 hrs by RT-qPCR; format: functional, cell-based
[22] = Induction of cell apoptosis in human THP-1 cells at 5 uM incubated for 48 hrs by Annexin V/DAPI staining based flow cytometry analysis relative to control; format: functional
[23] = test system: U-937; test: Induction of ferroptosis in human U-937 cells assessed as increase in ferrous ion accumulation at 5 uM incubated for 48 hrs by RhoNox-1 staining based flow cytometry analysis; format: functional, cell-based
[24] = Toxicity in female C57BL/6 mouse assessed as increase in survival rate at 50 mg/kg, ip administered once daily by Kaplan Mayer survival analysis; format: organism-based; conditions: in vivo
[25] = Clearance in ICR(CD-1) mouse at 5 mg/kg, iv treated up to 24 hrs by LC-MS/MS analysis; format: ADME, organism-based; conditions: in vivo
[26] = test system: U-937; test: Effect on DDIT3 gene expression in human U-937 cells at 10 uM incubated for 48 hrs by RT-qPCR; format: functional, cell-based
[27] = test system: U-937; test: Upregulation of Nrf2 protein level in human U-937 cells at 2.5 to 10 uM incubated for 48 hrs by Western blot analysis; format: functional, cell-based; conditions: dose 2.5-10 µM
[28] = test system: U-937; test: Induction of ferroptosis in human U-937 cells assessed as increase in cellular ROS level incubated for 48 hrs by DCFH-DA staining based flow cytometry analysis; format: functional, cell-based; conditions: dose 2.5-10 µM
[29] = test system: U-937; test: Induction of ferroptosis in human U-937 cells assessed as increase in ferrous ion accumulation incubated for 48 hrs by RhoNox-1 staining based flow cytometry analysis; format: functional, cell-based; conditions: dose 2.5-10 µM
[30] = Antitumor activity against mouse MLL-AF9 cells allografted in female C57BL/6 mouse model assessed as GFP positive leukemic cells in peripheral blood at 50 mg/kg, ip administered once daily for 32 days in presence of cytarabine by FITC staining based analysis (reference value: 72.5 %); format: functional; conditions: time 32 day
[31] = test system: U-937; test: Upregulation of p62 mRNA level in human U-937 cells by qRT-PCR analysis; format: functional, cell-based
[32] = test system: U-937; test: Induction of cell apoptosis in human U-937 cells incubated for 48 hrs by Annexin V/DAPI staining based flow cytometry analysis; format: functional; conditions: dose 2.5-10 µM
[33] = test system: U-937; test: Induction of ferroptosis in human U-937 cells assessed as increase in malondialdehyde level at 5 uM incubated for 48 hrs in presence of ferrostatin-1; format: functional, cell-based
[34] = Toxicity in female C57BL/6 mouse assessed as drug tolerance at 50 mg/kg, ip administered once daily; format: organism-based; conditions: in vivo
[35] = test system: OCI-AML2; test: Induction of ferroptosis in human OCI-AML2 cells assessed as increase in ferrous ion accumulation at 5 uM incubated for 48 hrs by RhoNox-1 staining based flow cytometry analysis; format: functional, cell-based
[36] = test system: U-937; test: Induction of cell differentiation in human U-937 cells assessed as increase in CD11b expression at 5 uM incubated for 48 hrs by flow cytometry analysis; format: functional, cell-based
[37] = test system: MLL-AF9; test: Antitumor activity against mouse MLL-AF9 cells allografted in female C57BL/6 mouse model assessed as reduction in hepatomegaly at 50 mg/kg, ip administered once daily for 23 days in presence of cytarabine; format: functional, organism-based; conditions: time 23.0 day
[38] = test system: OCI-AML2; test: Induction of ferroptosis in human OCI-AML2 cells assessed as increase in ferrous ion accumulation at 100 uM incubated for 48 hrs by RhoNox-1 staining based flow cytometry analysis; format: functional, cell-based
[39] = test system: OCI-AML2; test: Induction of ferroptosis in human OCI-AML2 cells assessed as increase in malondialdehyde level at 5 uM incubated for 48 hrs in presence of ferrostatin-1; format: functional, cell-based

## O=C(NO)c1cccc2[nH]c(C#Cc3cccc(C(F)(F)F)c3)cc12
[1]
  IC50: ≤ 10 µM
[2]
  half-life: 49.2 min
[3]
  Activity: Active
[4]
  Tmax: 4.8 min
[5]
  IC50: ≤ 10 µM
[6]
  Activity: Active
[7]
  Activity: Active
[8]
  Activity: Active
[9]
  IC50: 8.07 µM
[10]
  MRT inf: 76.2 min
[11]
  Activity: inactive
[12]
  Activity: inactive
[13]
  Activity: Active
[14]
  Activity: Non-toxic
[15]
  Activity: Active
[16]
  Activity: inactive
[17]
  Activity: Dose-dependent-effect
[18]
  IC50 at 2 days: 80 µM
[19]
  IC50: ≤ 10 µM
[20]
  Activity: Active
[21]
  Activity: Active
[22]
  Activity: ~20%
[23]
  Activity: Active
[24]
  Activity: Non-toxic
[25]
  clearance: 134 mL/min/kg
[26]
  Activity: Active
[27]
  Activity: Active
[28]
  Activity: Dose-dependent-effect
[29]
  Activity: Dose-dependent-effect
[30]
  Activity: 4.3%
[31]
  Activity: Active
[32]
  Activity: Dose-dependent-effect
[33]
  Activity: inactive
[34]
  Activity: Non-toxic
[35]
  Activity: Active
[36]
  Activity: Active
[37]
  Activity: Active
[38]
  Activity: Active
[39]
  Activity: inactive
